Measurements from patent publication US20240182893A1, “INHIBITION OF FGR REDUCES FIBROSIS” (UNIVERSITY OF PITTSBURGH-OF THE COMMONWEALTH SYSTEM OF …, priority 2021, published 2024).
Entries after “also recorded” stand apart in the source; their conditions may differ.

Tested on: gfp+ bone marrow cells
Assay: Transwell cell migration assay, gfp+ bone marrow cells towards senescent cells (3-micron filter)
Type: cell-based, mouse
Details: TL02-59 10 nM, 48 h, FIG. 45A, C, D
Description: FIG. 45A-FIG. 45F. […] FIG. 45A—The tdTOMp16+ cells either irradiated or non-irradiated were sorted by FACS for either tdTOM+ or tdTOM− cells, and each population was placed in the bottom chamber of each culture, well separated by a 3-micron filter. Gfp+ bone marrow cells were placed on the top chamber of each well and migration assay was carried out (3-micron membrane). The Fgr inhibitor TL02-59 (10 nM) (Shen K et al. Sci Signal 11(553): eaat5916, 2018) or RS 504393 (10 μM), a Ccl2 inhibitor, which is a CCR2 chemokine receptor antagonist, was added to cultures 24 h later. The migration of gfp+ bone marrow cells from the top chamber through the 3-micron filter to the bottom chamber was imaged and total gfp+ cells were counted. FIG. 45B—Image of gfp+ migrating cells through the filter at 24 h for each condition (×100). At 48 h, emigrated gfp+ cells in the bottom well were counted by FACS. After 48 h, migrating total. (FIG. 45C) gfp+ cells, and (FIG. 45D) gfp+ CD45+ cells were counted by FACS. […] Cell migration from the top wells to the bottom wells was evaluated by imaging and by (FIG. 45F) FACS analysis. (n=3, ****p=0.0001). p-Values were calculated by the t-test.
In vitro transwell experiments. […] The migration of gfp+ cells through the filter to the bottom compartment was measured by imaging the bottom wells and counting gfp+ cells relative to numbers of senescent TOM+ (red) cells. […]

CCN1CCN(Cc2ccc(NC(=O)c3ccc(C)c(Oc4ncnc5cc(OC)c(OC)cc45)c3)cc2C(F)(F)F)CC1 [TL02-59]
migration of gfp+ monocyte/macrophages towards senescent cells from irradiated tdTOMp16+ stromal cell line: abrogated monocyte/macrophages recruitment; also recorded: significantly reduced the migration; also recorded: inhibited; also recorded: prevents migration
